Reference: ChEMBL document CHEMBL5230097, “Structure-based design of covalent inhibitors targeting metallo-β-lactamases” (Eur J Med Chem, 2020)

Assays:
[1] = Inhibition of metallo-beta-lactamase IMP-1 (unknown origin) expressed in Escherichia coli BL21 (DE3) assessed as substrate hydrolysis using imipenem as substrate by spectrometric analysis; design: species or system Bacteria
[2] = Inhibition of Metallo-beta-lactamase NDM-1 (unknown origin) expressed in Escherichia coli BL21 (DE3) assessed as substrate hydrolysis using imipenem as substrate by spectrometric analysis; design: species or system Bacteria
[3] = Inhibition of metallo-beta-lactamase ImiS (unknown origin) expressed in Escherichia coli BL21 (DE3) assessed as substrate hydrolysis using imipenem as substrate by spectrometric analysis; design: species or system Bacteria
[4] = Inhibition of Metallo-beta-lactamase NDM-1 in Escherichia coli BL21 (DE3) assessed as substrate hydrolysis using cefazolin as substrate preincubated for 20 hrs followed by substrate by spectrometric analysis
[5] = Inhibition of Bacillus cereus II metallo-beta-lactamase using nitrocefin as substrate incubated for 5 mins by spectrophotometric analysis
[6] = Inhibition of Escherichia coli metallo-beta-lactamase NDM-1 assessed as substrate hydrolysis using cefazolin as substrate preincubated for 12 hrs followed by substrate by UV-Vis spectrophotometric analysis
[7] = Inhibition of wild type metallo-beta-lactamase IMP-1 (unknown origin) assessed as inhibition constant using nitrocefin as substrate preincubated with compound followed by substrate addition and measured for 60 sec by spectroscopic analysis; design: species or system Bacteria
[8] = Inhibition of Metallo-beta-lactamase NDM-1 in Escherichia coli BL21 assessed as inhibition constant using nitrocefin as substrate preincubated for 20 mins followed by substrate and measured after 30 mins by spectrophotometric analysis

SMILES	IC50 [1] [nM]	IC50 [2] [nM]	IC50 [3] [nM]	other results
S=C(SSC(=S)N1CCCC1)N1CCCC1 [BIS(PYRROLIDINYLTHIOCARBONYL)DISULFIDE]	950	120	3700	–
CCN(CC)C(=S)SSC(=S)N(CC)CC [DISULFIRAM]	2900	130	3600	–
O=c1c2ccccc2sn1-c1ccccc1	–	–	–	IC50 [4]: 160 nM
C[C@@H](NC(=O)c1ccccc1)C(=O)SCC(=O)O	–	–	–	IC50 [5]: 645000 nM
CCCCN(CCCC)C(=S)SSC(=S)N(CCCC)CCCC	530	260	1800	–
C[C@@H](NC(=O)Cc1ccccc1)C(=O)SCC(=O)O	–	–	–	IC50 [5]: 479000 nM
O=C(O)C(=O)CBr [BROMOPYRUVATE]	–	–	–	IC50 [6]: 2570 nM
O=C(CCSC(=O)CCS)Oc1c(F)c(F)c(F)c(F)c1F	–	–	–	Ki [7]: 420 nM
S=C(SSC(=S)N1CCCCC1)N1CCCCC1 [BIS(PIPERIDINYLTHIOCARBONYL)DISULFIDE]	880	140	490	–
O=c1c2ccccc2[se]n1-c1ccccc1 [EBSELEN]	–	–	–	Ki [8]: 380 nM
O=C(CCS)Oc1c(F)c(F)c(F)c(F)c1F	–	–	–	Ki [7]: 3450 nM
S=C(SSC(=S)N(Cc1ccccc1)Cc1ccccc1)N(Cc1ccccc1)Cc1ccccc1 [BIS(DIBENZYLAMINETHIOCARBONYL)DISULFIDE]	1700	320	2600	–
